Test results taken from patent US20170131285A1, “METHODS AND COMPOSITIONS FOR DIAGNOSING, MONITORING AND TREATING CANCER” (INSERM (Institut National de la Sante et de la Recherche …, priority 2014, published 2017).
Where no end group is shown, it is not given here.

Experiments:
human HSP70/HSP40 = biological target: T1, human HSP70/HSP40 (Homo sapiens, UniProt P0DMV8); assay: Refolding luciferase assay (HSP70 chaperone activity); assay type: biochemical; conditions: A8 5 μM to 50 μM, 1 hour at 25° C., purified recombinant proteins
T1 construct: purchased StressGen (EnzoLife)
Description: FIG. 3: A8 blocks HSP70/TLR2 association. (A) Immunoprecipitation of TLR2 in the presence of increasing concentrations of A8 (from 0.3 μM to 1.8 μM) was followed by HSP70 immunoblotting. IP control, no relevant IgG antibody. (B) Denatured luciferase (D) was incubated in the absence or presence of human HSP70 and, when indicated, increasing concentrations of A8 (C1=5 μM; C2=15 μM; C3=25 μM and C4=50 μM) for 1 hour at 25° C. Following incubation, the luciferase substrate D-luciferin was added and within 10 minutes the total light units emitted were collected for 10 seconds at 560 nm using a Wallac (Victor 3) spectrophotometer. *, p<0.05. (C) Biolayer interferometry to determine association and dissociation curves of HSP70 (concentration range from 2.5 μM to 156 nM) with biotinylated TRL2 immobilized on streptavidin sensor tips. (D) Association and dissociation curves of HSP70 (concentration range from 50 nM to 1.28 nM) with biotinylated A8 immobilized on streptavidin sensor tips. Curves in C and D represent mean values of triplicate measurements for each concentration. […]

MSC2 cells [1] = assay: IL-6 ELISA in supernatant of MSC2 cells incubated with exosomes; assay type: cell-based; conditions: exosomes from B16F10, 24 h
Description: (§1) FIG. 4: A8 blocks the activation and proliferation of MSC2 cells. (A) IL-6 concentration was determined by ELISA in the supernatant of MSC2 cells incubated or not for 24 h with exosomes (from B16F10) in the presence or absence of A8. *, p<0.05, (n=3). (B) A representative image of a western blot showing the kinetics of STAT3 phosphorylation in MCS2 cells incubated or not with exosomes isolated from B16F10, CT26 or HCT116 cells together with a peptide control (TDE) or A8 (TDE/A8). 14-3-3 is used as a loading control. In the right panels, the amount of pSTAT3 was quantified by densitometric analysis. *, p<0.05, n=4.
MSC2 cells were incubated alone or co-incubated with exosomes from B16F10 cells and/or A8 (during 24 h). Then, the supernatant was collected and centrifuged at 300 g at 4° C. for 5 min and analyzed with IL-6 ELISA assay (BD biosciences) according to the manufacturers' protocol.
Supernatants, collected from MSC2 or MDSC or co-cultured cells incubated alone or with exosomes from B16F10 cells and/or A8 (8 or 16 μM) were analyzed with IL-6, IL-10 and IFN gamma ELISA assay (BD biosciences) according to the manufacturers' protocol.

MSC2 cells [2] = assay: pSTAT3 western blot in MSC2 cells incubated with tumor-derived exosomes; assay type: cell-based
Description: as §1
Five millions of MSC2 cells were incubated with or without exosomes isolated from B16F10, CT26, HCT116 or SW480 cells in the presence or absence of A8 during 4 h or 6 h. Cells were isolated, lysed and analysed for pSTAT3 by western blotting.
MSC2 (2·10^6) or MDSC (2·10^6) were incubated alone or with exosomes (from B16F10, CT26, HCT116, SW480) in the absence or presence of A8 or A17 (16 μM) during 6 hours (RPMI 10% FBS, 5% of CO2 at 37° C.). Every 2 hours, […] cells were sampled and centrifugated 5 min at 300 g. Cells were lysed in lysis buffer (50 mM HEPES (pH 7.6), 150 mM NaCl, 5 mM EDTA, and 0.1% NP40 and anti-phosphatases, Roche). Then, pSTAT3 and STAT3 expression were analyzed by western blotting.

[3] = Toxicity observed in treated animals; assay type: in vivo; conditions: applicant's studies and bio-distribution studies
[4] = after systemic administration; cited from earlier work

T1 sequence (P0DMV8 whole entry): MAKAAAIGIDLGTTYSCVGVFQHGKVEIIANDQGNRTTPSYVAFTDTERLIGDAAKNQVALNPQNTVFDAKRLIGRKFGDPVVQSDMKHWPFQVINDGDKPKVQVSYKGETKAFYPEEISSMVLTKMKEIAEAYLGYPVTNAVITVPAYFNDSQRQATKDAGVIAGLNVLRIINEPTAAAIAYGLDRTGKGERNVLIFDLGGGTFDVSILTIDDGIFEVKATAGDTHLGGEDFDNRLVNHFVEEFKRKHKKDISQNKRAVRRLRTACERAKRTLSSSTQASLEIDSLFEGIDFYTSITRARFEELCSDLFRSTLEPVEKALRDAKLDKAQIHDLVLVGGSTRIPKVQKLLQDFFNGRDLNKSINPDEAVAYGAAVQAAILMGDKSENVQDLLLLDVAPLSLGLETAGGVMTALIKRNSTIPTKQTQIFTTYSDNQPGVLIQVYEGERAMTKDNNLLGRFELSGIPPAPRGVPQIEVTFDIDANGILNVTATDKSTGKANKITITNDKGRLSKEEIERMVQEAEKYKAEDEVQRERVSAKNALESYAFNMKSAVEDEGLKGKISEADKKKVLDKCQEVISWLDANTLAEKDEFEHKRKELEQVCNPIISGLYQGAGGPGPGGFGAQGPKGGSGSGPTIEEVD

SPWPRPTY [Aptamer A8, SPWPRPTY]
HSP70 chaperone activity (luciferase refolding) (human HSP70/HSP40): blocked, in a dose-dependent manner | IL-6 production by MSC2 stimulated by tumor-derived exosomes (MSC2 cells [1]): abrogated | STAT3 phosphorylation (activation) in MSC2 induced by tumor-derived exosomes (MSC2 cells [2]; exosomes from CT26, B16F10, HCT116, SW480, 4 h and 6 h, aptamer 16 μM): inhibited the ability of tumor-derived exosomes to activate STAT3 | MDSC activation (STAT3 phosphorylation in MSC2) in the absence of tumor-derived exosomes (MSC2 cells [2]; no exosomes): does not have a direct effect in MDSC activation | toxicity in the animals, notably cardiac or hepatic [3]: neither our studies nor those done for the bio-distribution of A8 indicate any evident toxicity | biodistribution (localization of the peptide) [4]: localizes mainly in the tumor area
